Source: PMC5700983 (Nature Communications, 2017)
Where two headings read alike, the source gives them in different places.

How the values were obtained:
Te_PtxB [1] = target: T1, Te_PtxB (Trichodesmium erythraeum, UniProt Q119I9); experiment: biochemical; type: binding, Trichodesmium erythraeum IMS101
Ps_PtxB = Ps_PtxB (Stutzerimonas stutzeri, UniProt O69052); experiment: biochemical; type: binding, Pseudomonas stutzeri WM88
Pm_PhnD = Pm_PhnD (Prochlorococcus marinus, UniProt A3PC74); experiment: biochemical; type: binding, Prochlorococcus marinus MIT9301
[2] = target: Te_PtxB, Pm_PhnD and Ps_PtxB; type: binding
Pm_PtxB = conditions: cited from earlier work
[3] = tested on: E. coli strain devoid of its native phosphate acquisition systems; conditions: cited from earlier work
[4] = tested on: E. coli strain devoid of its native phosphate acquisition systems; conditions: cited from earlier work; remark: listed apart in the source
HtxB [5] = target: T2, HtxB (Stutzerimonas stutzeri, UniProt O69061); experiment: biochemical
Te_PtxB Y208A = Te_PtxB Y208A (Trichodesmium erythraeum, UniProt Q119I9, Y234A); experiment: biochemical
Te_PtxB Y208F [6] = target: T3, Te_PtxB Y208F (Trichodesmium erythraeum, UniProt Q119I9, Y234F); experiment: biochemical
Te_PtxB [7] = target: T1, Te_PtxB; experiment: biochemical
HtxB [8] = target: T2, HtxB; conditions: pH 7.4
Te_PtxB Y208F [9] = target: T3, Te_PtxB Y208F
Ec_PhnD = conditions: cited from earlier work

T3 sequence (Q119I9 28-298 Y234F limits assumed): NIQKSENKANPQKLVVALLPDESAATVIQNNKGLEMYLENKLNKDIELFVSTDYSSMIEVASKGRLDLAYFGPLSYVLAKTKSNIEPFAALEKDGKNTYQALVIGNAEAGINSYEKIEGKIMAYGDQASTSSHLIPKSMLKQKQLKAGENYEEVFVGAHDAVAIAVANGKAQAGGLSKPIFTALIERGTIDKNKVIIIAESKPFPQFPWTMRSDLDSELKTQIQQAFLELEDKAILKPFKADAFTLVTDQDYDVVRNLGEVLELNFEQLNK
T1 sequence (Q119I9 28-298 limits assumed): as the sequence (Q119I9 28-298 Y234F limits assumed) above, with F207Y counted along it
Pm_PhnD, sequence (A3PC74 25-297): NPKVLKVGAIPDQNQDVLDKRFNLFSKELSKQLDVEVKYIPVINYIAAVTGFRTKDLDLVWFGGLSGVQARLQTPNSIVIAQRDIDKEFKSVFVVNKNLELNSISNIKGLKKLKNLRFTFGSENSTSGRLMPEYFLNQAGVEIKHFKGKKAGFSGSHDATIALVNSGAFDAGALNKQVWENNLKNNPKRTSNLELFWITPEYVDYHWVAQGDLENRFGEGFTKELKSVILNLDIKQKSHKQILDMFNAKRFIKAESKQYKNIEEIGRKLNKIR
Ps_PtxB, sequence (O69052 24-287): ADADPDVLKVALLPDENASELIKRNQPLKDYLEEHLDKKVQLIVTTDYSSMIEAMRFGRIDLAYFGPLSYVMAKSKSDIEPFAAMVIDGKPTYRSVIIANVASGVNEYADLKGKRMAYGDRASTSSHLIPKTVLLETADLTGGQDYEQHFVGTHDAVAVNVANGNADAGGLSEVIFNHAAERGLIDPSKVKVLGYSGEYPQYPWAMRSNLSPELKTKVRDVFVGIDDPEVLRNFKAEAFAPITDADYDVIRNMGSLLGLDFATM
Te_PtxB Y208A, sequence (Q119I9 28-298 Y234A limits assumed): as the sequence (Q119I9 28-298 Y234F limits assumed) above, with F207A counted along it
T2 sequence (O69061 34-298): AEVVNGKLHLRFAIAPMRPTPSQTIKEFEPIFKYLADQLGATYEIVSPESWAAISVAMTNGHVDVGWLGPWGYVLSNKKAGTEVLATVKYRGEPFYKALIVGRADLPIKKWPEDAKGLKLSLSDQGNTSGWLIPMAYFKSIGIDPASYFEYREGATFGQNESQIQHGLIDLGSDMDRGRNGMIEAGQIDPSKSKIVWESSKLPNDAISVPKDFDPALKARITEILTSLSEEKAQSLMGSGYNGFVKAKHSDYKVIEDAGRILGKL

In the case of `O=[PH](O)O` [Phosphite, phosphite], the “higher binding affinity for phosphite than phosphate and phosphonates, Te_PtxB” value (Te_PtxB [1]) is reported as 2–4 orders of magnitude, the Kd (Te_PtxB [1]; K d, Te_PtxB) is reported as 0.17 ± 0.07 µM and the Kd (Te_PtxB [1]; Kd, PtxB (approximate, authors' response)) is reported as ~0.17 µM. The Kd (Te_PtxB [1]; Kd, Te_PtxB WT (as quoted in peer review file)) was 0.17 µM, the Kd (Ps_PtxB) was 0.24 ± 0.03 µM and the Kd (Pm_PhnD) was 0.051 ± 0.004 µM. For the same compound, the “higher binding affinity for phosphite than phosphate and phosphonates, Pm_PhnD” value (Pm_PhnD) was 2–4 orders of magnitude, the Kd ([2]; read-out: K d range over Te_PtxB, Pm_PhnD and Ps_PtxB) was 0.05 to 0.24 µM and the “binding affinity for Pm_PtxB, in words” value (Pm_PtxB) was “low micromolar”. The “growth of E. coli strain with PtxD and Ralstonia sp. 4506 PtxABC” value [3] was “grew”, the “growth of E. coli strain with HtxBCDE” value [4] was “did allow growth” and the Kd (HtxB [5]) was > 10000 µM. It also gave a Kd (Te_PtxB Y208A; K d, Te_PtxB Y208A) of 134 ± 6.4 µM, a Kd (Te_PtxB Y208A; Kd, Te_PtxB Y208A (as quoted in peer review file)) of 135 µM and a Kd (Te_PtxB Y208F [6]; K d, Te_PtxB Y208F) of 295 ± 4.64 µM. The Kd (Te_PtxB Y208F [6]; Kd, Te_PtxB Y208F (as quoted in peer review file)) was 295 µM and the Kd (Te_PtxB [7]) was 0.289 ± 0.064 µM.

With `O=P(O)(O)O` [Phosphate] the Kd (Ps_PtxB) was 159 ± 36 µM, the “K d, HtxB” value (HtxB [8]) was “NBD” and the “binding to Te_PtxB Y208F, result in words” value (Te_PtxB Y208F [9]) was “essentially abolished”. The “growth of E. coli strain with PtxD and Ralstonia sp. 4506 PtxABC” value [3] was “grew”, the “growth of E. coli strain with HtxBCDE” value [4] was “did not allow growth” and the Kd (Te_PtxB Y208A) was 51.3 ± 1.76 µM. For the same compound, the Kd (Te_PtxB Y208F [6]) was > 60000 µM.

With `NCCP(=O)(O)O` [2-Aminoethylphosphonate, 2-aminoethylphosphonate] the “K d, Te_PtxB” value (Te_PtxB [1]; pH 7.4) was “NBD”, the “K d, Ps_PtxB” value (Ps_PtxB; pH 7.4) was “NBD” and the “K d, Pm_PhnD” value (Pm_PhnD; pH 7.4) was “NBD”. The “binding, result in words” value [2] was “None of the proteins showed any evidence of binding” and the “binding affinity for Ec_PhnD, in words” value (Ec_PhnD) was “low nanomolar”.
